Experimental data taken from ChEMBL document CHEMBL5608199, “Quaternized antimicrobial peptide mimics based on harmane as potent anti-MRSA agents by multi-target mechanism covering cell wall, cell membrane and intracellular targets” (Eur J Med Chem, 2024).
Values after ≈ are worked out from the molar mass of the structure shown. Active and inactive are the calls of the source. No cut-off for these calls is given here.

Columns and labels:
[1] = test system: Staphylococcus aureus; test: Antibacterial activity against methicillin-resistant Staphylococcus aureus ATCC 43300 incubated for 18 hrs by two fold serial broth dilution method; assay type: functional
[2] = test system: Staphylococcus aureus; test: Antibacterial activity against methicillin-resistant Staphylococcus aureus CGMCC 1.12409 incubated for 18 hrs by two fold serial broth dilution method; assay type: functional
[3] = test system: Staphylococcus aureus; test: Antibacterial activity against methicillin-resistant Staphylococcus aureus ATCC 33591 incubated for 18 hrs by two fold serial broth dilution method; assay type: functional
[4] = test system: Staphylococcus aureus; test: Antibacterial activity against Staphylococcus aureus ATCC 29213 incubated for 18 hrs by two fold serial broth dilution method; assay type: functional
[5] = test system: Staphylococcus aureus; test: Antibacterial activity against Staphylococcus aureus CMCC 26003 incubated for 18 hrs by two fold serial broth dilution method; assay type: functional
[6] = test system: Escherichia coli; test: Antibacterial activity against Escherichia coli ATCC 8739 incubated for 18 hrs by two fold serial broth dilution method; assay type: functional
[7] = test system: Staphylococcus aureus; test: Antibacterial activity against methicillin-resistant Staphylococcus aureus clinical isolate M-14 incubated for 18 hrs by two fold serial broth dilution method; assay type: functional
[8] = test system: Staphylococcus aureus; test: Antibacterial activity against methicillin-resistant Staphylococcus aureus clinical isolate M-15 incubated for 18 hrs by two fold serial broth dilution method; assay type: functional
[9] = test system: Staphylococcus aureus; test: Antibacterial activity against methicillin-resistant Staphylococcus aureus clinical isolate M-16 incubated for 18 hrs by two fold serial broth dilution method; assay type: functional
[10] = test system: Staphylococcus aureus; test: Antibacterial activity against methicillin-resistant Staphylococcus aureus clinical isolate M-17 incubated for 18 hrs by two fold serial broth dilution method; assay type: functional
[11] = test system: Staphylococcus aureus; test: Antibacterial activity against methicillin-resistant Staphylococcus aureus clinical isolate M-18 incubated for 18 hrs by two fold serial broth dilution method; assay type: functional
[12] = test system: Staphylococcus aureus; test: Antibacterial activity against methicillin-resistant Staphylococcus aureus clinical isolate M-19 incubated for 18 hrs by two fold serial broth dilution method; assay type: functional
[13] = test system: Staphylococcus aureus; test: Antibacterial activity against methicillin-resistant Staphylococcus aureus clinical isolate M-20 incubated for 18 hrs by two fold serial broth dilution method; assay type: functional
[14] = test system: Erythrocyte; test: Hemolytic activity at sheep Red blood cells at 0.5 to 128 ug/ml; assay type: toxicity, cell-based, Ovis aries; conditions: dose 0.5-128 µg/ml
[15] = Hemolytic activity at sheep Red blood cells at 256 ug/ml; assay type: toxicity, cell-based, Ovis aries, Erythrocyte; conditions: sheep red blood cells (erythrocytes), at 256 µg/mL, read-out: Activity
[16] = Cytotoxicity against human HTR-8/SVneo cells assessed as cell viability at 0.5 ug/ml by CCK-8 assay relative to control; assay type: toxicity, cell-based; conditions: at 0.5 µg/mL, read-out: Activity
[17] = Cytotoxicity against human HTR-8/SVneo cells assessed as cell viability at 8 ug/ml by CCK-8 assay relative to control; assay type: toxicity, cell-based; conditions: at 8 µg/mL, read-out: Activity
[18] = Stability in sheep plasma assessed as increase in MIC measured after 0 to 6 hrs; assay type: ADME, cell-free, Ovis aries; conditions: time 0-6 hrs
[19] = test system: Staphylococcus aureus; test: Antibacterial activity against methicillin-resistant Staphylococcus aureus ATCC 33591 assessed as inhibition of bacterial growth at 0.5 ug/ml measured after 8 hrs relative to control; assay type: functional
[20] = test system: Staphylococcus aureus; test: Bacteriostatic activity against methicillin-resistant Staphylococcus aureus ATCC 33591 assessed as log reduction in viable bacterial count at 1 to 4 times MIC measured at 10 hrs by time-kill assay; assay type: functional
[21] = test system: Staphylococcus aureus; test: Bactericidal activity against methicillin-resistant Staphylococcus aureus ATCC 33591 assessed as log reduction in viable bacterial count at 8 times MIC measured after 10 hrs by time-kill assay; assay type: functional
[22] = test system: Staphylococcus aureus; test: Antibacterial activity against methicillin-resistant Staphylococcus aureus ATCC 33591 infected in cyclophosphamide treated female KM mouse skin infection model assessed as log reduction in bacterial load in abscess at 13.2 mg/kg administered for 4 days and measured on day 5; assay type: functional; conditions: time 5 day
[23] = test system: Staphylococcus aureus; test: Antibacterial activity against methicillin-resistant Staphylococcus aureus ATCC 33591 infected in cyclophosphamide treated female KM mouse skin infection model assessed as reduction in bacterial load in abscess administered for 4 days and measured on day 5; assay type: functional, organism-based; conditions: dose 3.3-13.2 mg/kg, time 5.0 day
[24] = test system: Staphylococcus aureus; test: Antibacterial activity against methicillin-resistant Staphylococcus aureus ATCC 33591 infected in cyclophosphamide treated female KM mouse skin infection model assessed as log reduction in bacterial load in abscess at 3.3 mg/kg administered for 4 days and measured on day 5; assay type: functional; conditions: time 5 day
[25] = test system: Staphylococcus aureus; test: Antibacterial activity against methicillin-resistant Staphylococcus aureus ATCC 33591 infected in cyclophosphamide treated female KM mouse skin infection model assessed as reduction in number of bacterial clones in skin at 3.3 to 13.2 mg/kg administered for 4 days and measured on day 5; assay type: functional, organism-based; conditions: dose 3.3-13.2 mg/kg, time 5.0 day
[26] = test system: Staphylococcus aureus; test: Antibacterial activity against methicillin-resistant Staphylococcus aureus ATCC 33591 infected in cyclophosphamide treated female KM mouse skin infection model assessed as reduction in inflammatory cell infiltration at 3.3 to 13.2 mg/kg administered for 4 days and measured on day 5 by H and E staining based analysis; assay type: functional, organism-based; conditions: dose 3.3-13.2 mg/kg, time 5.0 day
[27] = test system: Staphylococcus aureus; test: Induction of morphological changes in methicillin-resistant Staphylococcus aureus ATCC 33591 assessed as appearance of irregular cell morphology at 1 ug/ml measured after 6 hrs by SEM analysis; assay type: functional, organism-based; conditions: dose 1.0 µg/ml
[28] = test system: Staphylococcus aureus; test: Induction of morphological changes in methicillin-resistant Staphylococcus aureus ATCC 33591 assessed as appearance of cracked cell morphology at 1 ug/ml measured after 6 hrs by SEM analysis; assay type: functional, organism-based; conditions: dose 1.0 µg/ml
[29] = test system: Staphylococcus aureus; test: Induction of morphological changes in methicillin-resistant Staphylococcus aureus ATCC 33591 assessed as appearance of adhesive cell morphology at 1 ug/ml measured after 6 hrs by SEM analysis; assay type: functional, organism-based; conditions: dose 1.0 µg/ml
[30] = test system: Staphylococcus aureus; test: Antibacterial activity against methicillin-resistant Staphylococcus aureus ATCC 33591 assessed as neutralization of negative charge in cell wall by measuring increase in surface potential; assay type: functional, organism-based; conditions: dose 0-256 µg/ml
[31] = test system: Lipoteichoic acid; test: Displacement of BODIPY-TR-cadaverine from methicillin-resistant Staphylococcus aureus ATCC 33591 lipoteichoic acid assessed as increase in fluorescence intensity; conditions: dose 0.5-4 µg/ml
[32] = test system: Staphylococcus aureus; test: Antibacterial activity against methicillin-resistant Staphylococcus aureus ATCC 33591 assessed as inhibition of bacterial growth in presence of 0 to 128 ug/ml peptidoglycan by exogenous addition assay (reference value: 0.5 ug/ml); assay type: functional
[33] = test system: Cell membrane; test: Disruption of membrane integrity in methicillin-resistant Staphylococcus aureus ATCC 33591 assessed as appearance of blue and green fluorescence at 1 ug/ml by DAPI/SYTOX Green double staining assay; assay type: cell membranes; conditions: dose 1.0 µg/ml
[34] = test system: Cell membrane; test: Disruption of membrane integrity in methicillin-resistant Staphylococcus aureus ATCC 33591 assessed as increase in fluorescence intensity by PI staining based fluorescence assay; assay type: cell membranes; conditions: dose 0-4 µg/ml
[35] = test system: Cell membrane; test: Disruption of membrane integrity in methicillin-resistant Staphylococcus aureus ATCC 33591 assessed as increase in protein leakage; assay type: cell membranes; conditions: dose 0-4 µg/ml
[36] = test system: Cell membrane; test: Disruption of membrane integrity in methicillin-resistant Staphylococcus aureus ATCC 33591 assessed as increase in nucleic acid leakage; assay type: cell membranes; conditions: dose 0-4 µg/ml
[37] = test system: Cell membrane; test: Disruption of membrane integrity in methicillin-resistant Staphylococcus aureus ATCC 33591 assessed as fold increase in nucleic acid leakage at 1 ug/ml relative to control; assay type: cell membranes; conditions: dose 1.0 µg/ml
[38] = test system: Cell membrane; test: Induction of membrane depolarization in methicillin-resistant Staphylococcus aureus ATCC 33591 assessed as increase in fluorescence intensity at 1 to 4 times MIC measured after 0 to 120 mins by DiSC3(5) staining based assay; assay type: cell membranes; conditions: time 0-120 min
[39] = test system: Cell membrane; test: Induction of membrane depolarization in methicillin-resistant Staphylococcus aureus ATCC 33591 assessed as increase in fluorescence intensity at 1 to 4 times MIC by DiSC3(5) staining based assay; assay type: cell membranes; conditions: time 0-120 min, TDE = time-dependent effect
[40] = test system: Staphylococcus aureus; test: Antibacterial activity against methicillin-resistant Staphylococcus aureus ATCC 33591 assessed as reduction in metabolic activity by alamar blue assay; assay type: functional, organism-based; conditions: dose 0-4 µg/ml
[41] = test system: Staphylococcus aureus; test: Antibacterial activity against methicillin-resistant Staphylococcus aureus ATCC 33591 assessed as reduction in LDH activity; assay type: functional, organism-based; conditions: dose 0-4 µg/ml
[42] = test system: Staphylococcus aureus; test: Antibacterial activity against methicillin-resistant Staphylococcus aureus ATCC 33591 assessed as reduction in LDH activity at 4 ug/ml measured after 8 hrs relative to control; assay type: functional; design: scale not given: the % may be the effect or the level left; conditions: dose 4 µg/ml
[43] = test system: Staphylococcus aureus; test: Induction of ROS generation in methicillin-resistant Staphylococcus aureus ATCC 33591 assessed as increase in ROS level; assay type: functional, organism-based; conditions: dose 0-4 µg/ml
[44] = test system: Staphylococcus aureus; test: Induction of ROS generation in methicillin-resistant Staphylococcus aureus ATCC 33591 assessed as fold increase in ROS level at 0.5 ug/ml relative to control; assay type: functional; conditions: dose 0.5 µg/ml
[45] = test system: Staphylococcus aureus; test: Induction of oxidative damage in methicillin-resistant Staphylococcus aureus ATCC 33591 assessed as loss of GSH activity; assay type: functional, organism-based; conditions: dose 0-4 µg/ml
[46] = test system: Staphylococcus aureus; test: Induction of oxidative damage in methicillin-resistant Staphylococcus aureus ATCC 33591 assessed as reduction in SOD activity; assay type: functional, organism-based; conditions: dose 0-4 µg/ml
[47] = test system: Calf thymus DNA; test: Binding affinity to calf thymus DNA assessed as reduction in fluorescence intensity at 3 x 10^-5M by fluorescence spectroscopy; assay type: nucleic-acid assay; conditions: Bos taurus; dose 3.0 10^-5M
[48] = test system: Calf thymus DNA; test: Binding affinity to calf thymus DNA assessed as increase in absorption wavelength intensity at 0 to 2.4 x 10^-5M by absorption spectroscopy; assay type: nucleic-acid assay; conditions: Bos taurus; dose 0-2.4 10^-5M
[49] = test system: Staphylococcus aureus; test: Antibacterial activity against methicillin-resistant Staphylococcus aureus; assay type: functional
[50] = test system: Staphylococcus sp.; test: Antibacterial activity against Staphylococcus sp. 772 assessed as inhibition of bacterial growth incubated for 24 hrs by microdilution method; assay type: functional

## Cc1c2c(cc[n+]1C)c1ccccc1n2CCCCCCCCn1c2ccccc2c2cc[n+](C)c(C)c21.[I-].[I-]
[1]
  MIC: 2 µg/mL
[2]
  MIC: 1 µg/mL
[3]
  MIC: 0.5 µg/mL
[4]
  MIC: 4 µg/mL
[5]
  MIC: 0.5 µg/mL
[6]
  MIC: 8 µg/mL
[7]
  MIC: 1 µg/mL
[8]
  MIC: 2 µg/mL
[9]
  MIC: 1 µg/mL
[10]
  MIC: 1 µg/mL
[11]
  MIC: 2 µg/mL
[12]
  MIC: 1 µg/mL
[13]
  MIC: 1 µg/mL
[14]
  Activity: Non-Toxic
[15]
  hemolysis at 256 ug/ml: 7.71%
[16]
  viability at 0.5 ug/ml: 110%
[17]
  viability at 8 ug/ml: 97.8%
[18]
  Stability: Stable
[19]
  inhibition at 0.5 µg/mL: 100%
[20]
  log(activity): <3
[21]
  log(activity): 3.44
[22]
  log(activity): 4.06
[23]
  Activity: Dose-Dependent Effect
[24]
  log(activity): 1.27
[25]
  Activity: Active
[26]
  Activity: Active
[27]
  Activity: Active
[28]
  Activity: Active
[29]
  Activity: Active
[30]
  Activity: Dose-Dependent Effect
[31]
  Activity: Dose-Dependent Effect
[32]
  MIC: 8 µg/mL
[33]
  Activity: Active
[34]
  Activity: Dose-Dependent Effect
[35]
  Activity: Dose-Dependent Effect
[36]
  Activity: Dose-Dependent Effect
[37]
  fold change (FC): 28
[38]
  Activity: Dose-Dependent Effect
[39]
  Activity: Tde
[40]
  Activity: Dose-Dependent Effect
[41]
  Activity: Dose-Dependent Effect
[42]
  Activity: 87.21%
[43]
  Activity: Dose-Dependent Effect
[44]
  fold change (FC): 1.25
[45]
  Activity: Dose-Dependent Effect
[46]
  Activity: Dose-Dependent Effect
[47]
  Activity: Active
[48]
  Activity: Active

## COc1ccc2c(c1)c1cc[n+](C)cc1n2CCCCCCCCn1c2ccc(OC)cc2c2cc[n+](C)cc21.[I-].[I-]
[49]
  MIC: 2 µg/mL

## Cc1nccc2c1[nH]c1ccccc12 [HARMAN]
[1]
  MIC: 128 µg/mL (≈ 702 µM)
[2]
  MIC: > 128 µg/mL
[3]
  MIC: 128 µg/mL (≈ 702 µM)
[4]
  MIC: 128 µg/mL (≈ 702 µM)
[5]
  MIC: 128 µg/mL (≈ 702 µM)
[6]
  MIC: 8 µg/mL (≈ 43.9 µM)
[50]
  MIC: 18 µg/mL (≈ 98.8 µM)
